Literature values as cited in patent US20080039428A1, “Antiretroviral combination therapy” (Panacos Pharmaceuticals, Inc., priority 2006, published 2008).

Test system: HIV

## C=C(C)[C@@H]1CC[C@]2(C(=O)O)CC[C@]3(C)[C@H](CC[C@@H]4[C@@]5(C)CC[C@H](OC(=O)CC(C)(C)C(=O)O)C(C)(C)[C@@H]5CC[C@]43C)[C@@H]12 [DSB, 3-O-(3′,3′-dimethylsuccinyl)betulinic acid]
  inhibition of HIV replication: potent inhibitor of HIV replication
